Measurements: publication PMC4368888, “Preclinical to Clinical Translation of CNS Transporter Occupancy of TD-9855, a Novel Norepinephrine and Serotonin Reuptake Inhibitor” (International Journal of Neuropsychopharmacology, 2015)
Where “and” joins values, the source holds several entries; their conditions need not be identical. Identical values can stand only once.

Columns and labels:
human recombinant DAT = molecular target: T1, human recombinant DAT (Homo sapiens, UniProt Q01959); test: [3H]-WIN35428 equilibrium binding, CHO-K1-hDAT membranes; details: mean (95% CI), 3 to 9 experiments, read-out: Transporter Binding: pKi DAT (converted)
T1 construct: expressed in transfected cells; 'hDAT cells' for uptake
T1 sequence (Q01959 whole entry): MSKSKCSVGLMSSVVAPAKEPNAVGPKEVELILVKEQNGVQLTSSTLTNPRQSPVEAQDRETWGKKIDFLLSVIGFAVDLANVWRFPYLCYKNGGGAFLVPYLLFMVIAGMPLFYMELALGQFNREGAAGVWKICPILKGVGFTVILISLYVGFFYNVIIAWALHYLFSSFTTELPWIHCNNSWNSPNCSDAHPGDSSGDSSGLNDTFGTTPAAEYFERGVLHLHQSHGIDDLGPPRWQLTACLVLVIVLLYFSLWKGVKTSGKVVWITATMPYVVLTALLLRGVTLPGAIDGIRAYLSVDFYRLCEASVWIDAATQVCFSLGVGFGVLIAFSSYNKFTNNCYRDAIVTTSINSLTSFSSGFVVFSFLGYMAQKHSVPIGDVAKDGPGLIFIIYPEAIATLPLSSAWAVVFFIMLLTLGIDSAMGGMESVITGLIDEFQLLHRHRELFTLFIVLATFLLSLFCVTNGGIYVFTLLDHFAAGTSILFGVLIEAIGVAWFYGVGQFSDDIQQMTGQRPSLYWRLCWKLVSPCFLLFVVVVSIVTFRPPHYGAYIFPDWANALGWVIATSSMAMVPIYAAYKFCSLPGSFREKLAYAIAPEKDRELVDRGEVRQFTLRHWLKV
Source text: The in vitro pharmacology of TD-9855 (4-[2-(2, 4, 6-trifluorophenoxymethyl)phenyl]piperidine; Figure 1) at human recombinant and rat native monoamine transporters was characterized as described previously ([Tsuruda et al., 2010]; [Shen et al., 2013]). Radioligands were sourced commercially (Perkin Elmer Life Sciences or GE Healthcare Life Sciences). Briefly, membranes prepared from HEK293 (Human Embryonic Kidney 293) cells stably-transfected with human recombinant SERT (HEK293-hSERT), NET (HEK293-hNET), or DAT ([…]) were incubated for 1hr at 22°C in the absence, or presence, of TD-9855 and [^3H]-citalopram (1.0nM) for SERT, [^3H]-nisoxetine (2.0nM) for NET, and [^3H]-WIN35428 (3.0nM) for DAT in 50mM Tris-HCl, 120mM NaCl, 5mM KCl, 0.025% BSA, 100 μM ascorbic acid, pH 7.4. Rat cortical membrane preparations were incubated with [^3H]-citalopram (2.0nM) for SERT or [^3H]-nisoxetine (4.0nM) for NET for 1hr at 22°C. […] Binding and uptake assays were terminated by rapid filtration and radioactivity, determined by liquid scintillation spectroscopy.

[1] = design: method as in Theravance Biopharma US, Inc., data on file; details: human; ref Theravance Biopharma US, Inc., data on file; cited from earlier work
NET = NET (Homo sapiens, UniProt P23975); test: Human PET NET occupancy with [11C]-MRB; type: in vivo; design: from tissue; host or cells: brain of healthy male volunteers, in vivo PET
Sequence of NET (P23975 whole entry): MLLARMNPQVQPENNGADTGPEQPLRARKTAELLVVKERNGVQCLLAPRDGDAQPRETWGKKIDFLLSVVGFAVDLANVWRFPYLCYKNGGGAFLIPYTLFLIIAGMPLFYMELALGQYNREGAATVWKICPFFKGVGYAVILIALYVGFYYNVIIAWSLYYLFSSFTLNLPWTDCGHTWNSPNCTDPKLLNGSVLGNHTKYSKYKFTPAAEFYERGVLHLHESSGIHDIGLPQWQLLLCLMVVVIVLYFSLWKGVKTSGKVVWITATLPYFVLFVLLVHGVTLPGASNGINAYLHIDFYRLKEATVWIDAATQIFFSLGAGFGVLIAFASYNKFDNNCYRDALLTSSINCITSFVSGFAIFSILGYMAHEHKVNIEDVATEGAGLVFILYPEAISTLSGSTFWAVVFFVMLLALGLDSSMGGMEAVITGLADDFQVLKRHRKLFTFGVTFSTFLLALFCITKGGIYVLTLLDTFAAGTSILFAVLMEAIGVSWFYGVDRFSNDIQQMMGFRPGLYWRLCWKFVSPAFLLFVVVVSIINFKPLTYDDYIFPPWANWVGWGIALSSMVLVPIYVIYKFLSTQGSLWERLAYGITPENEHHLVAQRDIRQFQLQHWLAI
Protocol: This was a Phase 1, open-label, single-dose study in healthy male volunteers to evaluate NET and SERT occupancy in the human brain after oral administration of TD-9855 using PET.
The study was conducted at the Yale PET Center in accordance with the principles of the International Conference on Harmonisation’s Technical Requirements for Registration of Pharmaceuticals for Human Use Guideline for Good Clinical Practice. The protocol was approved by the Yale University Human Investigation Committee and the Yale–New Haven Hospital Radiation Safety Committee. SERT and NET occupancy were determined using the selective radiotracers [^11C]-DASB ([Meyer et al., 2004]; [Takano et al., 2006]; [Abanades et al., 2011]; [Nogami et al., 2013]) and [^11C]-MRB. Selection of the radiotracers and the dose of TD-9855 were flexible to minimize the number of PET scans.
Eligible subjects were enrolled and received either [^11C]-MRB and/or [^11C]-DASB. Each subject underwent up to 5 PET scans over a period of up to 8 days. Multiple dose levels of TD-9855 (up to 20mg) were explored. All randomized subjects received the NET tracer (single-tracer evaluation) and some subjects (n = 3) received both the NET and SERT tracers sequentially (dual-tracer evaluation) in the baseline and post-dose period. […] In the dual-tracer evaluation, subjects completed sequential [^11C]-DASB and [^11C]-MRB baseline scans with each tracer, sequential post-dose scans with each tracer at 7–10hr post-dose, and one follow-up scan with [^11C]-MRB on or between Days 3 and 7.
The injected dose of both tracers was typically 14–15 mCi, with mass doses less than 10 µg in all cases. PET images were acquired using the High Resolution Research Tomograph (HRRT; Siemens/CTI) with a reconstructed image resolution of approximately 3mm. Following a transmission scan, [^11C]-MRB or [^11C]-DASB was injected intravenously as a 1min bolus by an infusion pump. List-mode data were acquired for 120min. Head motion correction was performed using an optical tracking tool (Vicra, NDI Systems) and a rigid tool attached to a swim cap.
The occipital cortex was selected as the reference region for [^11C]-MRB due to the low density of NET measured in vitro ([Schou et al., 2005]) and the absence of specific binding in a previous study ([Hannestad et al., 2010]). The regions of interest (ROIs) selected to assess [^11C]-MRB specific binding included one cortical region and the paracentral lobule, thalamus, hypothalamus, locus ceruleus, nucleus rubra, and raphe nucleus. The thalamus and cortical ROIs were delineated using the Automated Anatomical Labeling (AAL) template ([Tzourio-Mazoyer et al., 2002]). The hypothalamus, locus ceruleus, nucleus rubra, and raphe nucleus ROIs were drawn on the template MR image, based on the AAL template ([Hannestad et al., 2010]).
For both studies, binding potentials (BP ND) were estimated using a method based on a reference region input curve. For [^11C]-MRB regional BP ND were computed using the multilinear reference tissue model 2 (MRTM2; [Ichise et al., 2003]). The suitability of MRTM2 to estimate [^11C]-MRB BP ND values was evaluated in a previous study ([Hannestad et al., 2010]), in which it was shown that MRTM2 BP ND estimates are highly correlated with BP ND estimated with arterial blood sampling and the multilinear analysis 1 (y = 0.909 x + 0.078, r^2 = 0.821, where x represents the MA1 BP ND values and y represents the MRTM2 BP ND values). BP ND values and their associated standard errors ( SEBPND ) for each ROI were then estimated by performing fits of the regional TACs. Data were fitted starting at time t* = 20min. For [^11C]-DASB, regional BP ND values were computed using simplified reference tissue model 2 (SRTM2; [Wu and Carson, 2002]). SRTM2 is similar to MRTM2, except that it uses the full data set, while MRTM2 uses the period of time t > t*. When applied to single-voxel TACs, these fits provided the BP ND images. […]

[2] = 4 mg single oral dose, individual subjects, rApp ± SE
[3] = 10 mg single oral dose, individual subject, rApp ± SE
[4] = 20 mg single oral dose, individual subject, rApp ± SE
[5] = 20 mg single oral dose, individual subjects, rApp ± SE

## Fc1cc(F)c(OCc2ccccc2C2CCNCC2)c(F)c1 [TD-9855, 4-[2-(2,4,6-trifluorophenoxymethyl)phenyl]piperidine]
Human recombinant DAT
  Ki: 200 nM
[1]
  plasma protein binding: 79.1%
NET; 4 mg single oral dose, individual subject, rApp ± SE
  Apparent NET Occupancy Day 7: 3.2±7.8%
NET; [2]
  Apparent NET Occupancy Day 1: 57.9±4.7% and 58.7±5.5% and 42.2±6.4%
  Apparent NET Occupancy Day 3: 57.3±3.8% and 47.2±6.0% and 29.6±7.1%
NET; [3]
  Apparent NET Occupancy Day 1: 110.3±7.4%
  Apparent NET Occupancy Day 3: 92.0±10.8%
NET; [4]
  Apparent NET Occupancy Day 6: 62.9±5.0%
  Apparent NET Occupancy Day 7: 2.6±11.6%
NET; [5]
  Apparent NET Occupancy Day 1: 120.3±6.2% and 98.4±4.7% and 119.1±8.3% and 121.2±4.5%
  Apparent NET Occupancy Day 3: 96.2±10.2% and 124.3±4.9%
NET; human brain PET, single oral 4-20mg, fit ± standard error, read-out: plasma EC50 for NET occupancy (converted)
  EC50: 3.77 nM
